Key:
VEGFA (786-O cells) = test: VEGFA ELISA Assay (IC50); type: cell-based; settings: VEGFA in culture supernatant by ELISA
Experimental: 786-O cells in exponential growth phase were seeded in 96-well plate, the cell concentration was 65,000 cells per milliliter of culture medium, 180 ul per well. Compounds were serial diluted to the indicated concentration, and 20 ul compound solutions of different concentrations were added to the corresponding cell wells. The final compound concentrations were as follows (nM): 1.5, 4.6, 13.7, 41.2, 123.5, 370.4, 1111.1, 3333.3, 10000. After 24 hours of incubation, the cell culture supernatant was taken, and the VEGFA concentration was determined using an ELISA kit (purchased from abcam). Finally, the reaction was terminated, and the light absorbance value of each well was measured using a microplate reader at a wavelength of […], and IC50 was calculated by GraphPad Prism. Cell Titer-Glo reagent was used to measure cell viability.

[1] = test system: HIF2α reporter cells (786-O-HIF2α-Luc cells); test: Luciferase Assay (HIF2α reporter cells); type: cell-based; settings: 18-20 h, Steady-Glo luminescence
Experimental: Luciferase LUC gene was transfected into 786-O cells (purchased from ATCC) using Lipofectamine 3000 Transfection Reagent (purchased from Invitrogen) to construct HIF2α reporter cells (786-O-HIF2α-Luc cells). Experiments were performed when 786-O-HIF2α-Luc cells were in logarithmic growth phase, culture medium (RPMI MEDIUM 1640, purchased from Invitrogen) was abandoned, the cells were rinsed with PBS three times; trypsin (TrypLE, purchased from invitrogen) was added to digest cells, the digestion was terminated by washing the cells with culture medium, 10% fetal bovine serum, 1% penicillin and streptomycin. The cells were collected by centrifugation, rinsed twice with PBS to remove the phenol red in the medium, and then resuspended the cells to an appropriate concentration, and detected the cell density and viability, and made sure the cell viability is above 90% before it can be used for experiments.
The gradient concentration compound was transferred into 384-well plate, 25 nl/well using Echo 550 (non-contact sonic pipetting system, purchased from Labcyte); the cells were seeded in 384-well plate, 4500 cells/well, with 25 μl of culture medium, to make the final concentrations as follows: 10000, 3333, 1111, 370, 123, 41.1, 13.7, 4.6, 1.5, 0.5 nM. Cells were incubated at 37° C., 5% CO2 for 18-20 h; Steady-Glo™ Luciferase Assay System (purchased from Promega) was added to 384 well-plate, 25 μl/well; the luminescence value was detected with Envision. The % inhibition rate was calculated according to the RLU (Record Luminescence) signal value of each well, and then the IC50 of the corresponding compound was calculated by Graphpad 8.0.

[2] = Homo sapiens, 786-0, 24 h, 24 hours incubation, numeric values
[3] = Homo sapiens, 786-0, 24 h, 24 hours incubation, class symbols

Compound | IC50 ([1]; class symbols) | IC50 (VEGFA (786-O cells); [2]) | IC50 (VEGFA (786-O cells); [3]) | IC50 ([1]; numeric values) | other results
N#Cc1ccc(-n2cc(C(F)(F)F)c3c2CCC(F)(F)C3O)cc1Cl (centres unmarked) [Example 124, 2-chloro-4-(5,5-difluoro-4-hydroxy-3-(trifluoromethyl)-4,5,6,7-tetrahydro-1H-indol-1-yl)benzonitrile] | ≤ 500 nM | – | – | – | IC50 (VEGFA (786-O cells); Homo sapiens, 786-0, 24 hours incubation, numeric values): 8.5 nM
N#Cc1ccc(-n2cc(C(F)(F)F)c3c2CCC(F)(F)C3O)cc1C#N (centres unmarked) [Example 125, 4-(5,5-difluoro-4-hydroxy-3-(trifluoromethyl)-4,5,6,7-tetrahydro-1H-indol-1-yl)phthalonitrile] | ≤ 500 nM | 34 nM | – | – | –
N#Cc1cc(-n2cc(C(F)(F)F)c3c2CCC(F)[C@H]3O)ccc1F (stereo partly drawn) [Example 131, 2-fluoro-5-((4S)-5-fluoro-4-hydroxy-3-(trifluoromethyl)-4,5,6,7-tetrahydro-1H-indol-1-yl)benzonitrile] | ≤ 500 nM | – | ≤ 500 nM | – | –
(4S,5S)-1-(3-(difluoromethyl)-4-fluorophenyl)-5-fluoro-3-(trifluoromethyl)-4,5,6,7-tetrahydro-1H-indol-4-ol and (4R,5R)-1-(3-(difluoromethyl)-4-fluorophenyl)-5-fluoro-3-(trifluoromethyl)-4,5,6,7-tetrahydro-1H-indol-4-ol [Example 103] | ≤ 500 nM | – | – | – | IC50 (VEGFA (786-O cells); 24 hours incubation, numeric values): 44.1 nM

Further lines, with some results ahead:

IC50 ([1]; class symbols) | IC50 (VEGFA (786-O cells); [2]) | IC50 (VEGFA (786-O cells); [3]) | IC50 ([1]; numeric values) | Compound | other results
≤ 500 nM | – | ≤ 500 nM | – | OC1c2c(C(F)(F)F)cn(-c3cc(F)c(F)c(F)c3)c2CCC1(F)F (centres unmarked) [Example 148] | –
– | 15.6 nM | – | 70.5 nM | OC1c2c(C(F)(F)F)cn(-c3ccc(F)c(C(F)(F)F)c3)c2CCC1(F)F (centres unmarked) [Example 156, 5,5-difluoro-1-(4-fluoro-3-(trifluoromethyl)phenyl)-3-(trifluoromethy)-4,5,6,7-tetrahydro-1H-indol-4-ol] | –
– | – | ≤ 500 nM | 69.9 nM | N#Cc1ccc(-n2cc(C(F)(F)F)c3c2CCC(F)(F)[C@H]3O)cc1C#N [Example 167, (S)-4-(5,5-difluoro-4-hydroxy-3-(trifluoromethyl)-4,5,6,7-tetrahydro-1H-indol-1-yl)phthalonitrile] | –
– | 8.4 nM | – | 30.5 nM | OC1c2c(C(F)(F)F)cn(-c3ccc(F)c(C(F)F)c3)c2CCC1(F)F (centres unmarked) [Example 168, 1-(3-(difluoromethyl)-4-fluorophenyl)-5,5-difluoro-3-(trifluoromethyl)-4,5,6,7-tetrahydro-1H-indol-4-ol] | –
– | 17.8 nM | – | 15.9 nM | O[C@H]1c2c(C(F)(F)F)cn(-c3ccc(F)c(C(F)F)c3)c2CCC1(F)F [Example 173, (S)-1-(3-(difluoromethyl)-4-fluorophenyl)-5,5-difluoro-3-(trifluoromethyl)-4,5,6,7-tetrahydro-1H-indol-4-ol] | –
– | 5.6 nM | – | 33.5 nM | [2H][C@]1(O)c2c(C(F)(F)F)cn(-c3ccc(F)c(C#N)c3)c2CCC1(F)F [Example 200, (S)-5-(5,5-difluoro-4-hydroxyl-3-(trifluoromethyl)-4,5,6,7-tetrahydro-1H-indol-1-yl-4-d)-2-fluorobenzonitrile] | –

— patent publication US20230219890A1, “BICYCLIC COMPOUNDS AND USE THEREOF” (Betta Pharmaceuticals Co.,Ltd, priority 2020, published 2023)
